The nature of this data set: Elution test, JP XV paddle method. Format: physicochemical. The note with it: paddle 100 rpm, 900 ml pure water, 37° C. On the procedure:
The coating particles obtained in Examples 1 to 3 and the acetaminophen bulk powder were subjected to an elution test.
The elution test was carried out under the conditions of the number of revolutions of paddle: 100 rpm, 900 ml pure water and 37° C., in accordance with JP XV paddle method. Elution concentration of acetaminophen was obtained from an absorbance (285 nm).

Molecules are shown by their SMILES.

Turning to `CC(=O)Nc1ccc(O)cc1` [acetaminophen bulk powder, acetaminophen], the “elution concentration of acetaminophen” value by setting is: (after 0.5 minute) 90%; (after (about) 1 minute) 100%.
